Source: patent US10710980B2, “Aminopyridine derivatives and their use as selective ALK-2 inhibitors” (priority 2016, dated 2020)

Assays:
ALK5 (aa162-503) = ALK5 (aa162-503) (Homo sapiens (Human), UniProt P36897); assay: Caliper biochemical peptide phosphorylation assay, ALK5; conditions: 15 μm ATP, 60 min at 30° C.; read-out: ALK5 EPK (IC50)
[1] = target: T1, wild-type ALK2 (aa172-499) (Homo sapiens (Human), UniProt Q04771); assay: Caliper biochemical peptide phosphorylation assay, ALK2; conditions: 15 μm ATP, 60 min at 30° C.; read-out: ALK2 EPK (IC50)
[2] = target: T1, wild-type ALK2 (aa172-499); assay: ADPGlo biochemical autophosphorylation assay, ALK2; conditions: 15 μm ATP, 60 min at 32° C.
ALK1 (aa166-493) = ALK1 (aa166-493) (Homo sapiens (Human), UniProt P37023); assay: Caliper biochemical peptide phosphorylation assay, ALK1; conditions: 15 μm ATP, 60 min at 30° C.; read-out: ALK1 EPK (IC50)
[3] = test system: BMP response element (BRE) luciferase reporter in HuH7 cells, BMP6 stimulated; assay: BMP signaling reporter gene assay; assay type: cell-based; conditions: Homo sapiens, Huh-7; HuH7 BRE-luciferase, BMP6 100 ng/ml, 5 hours; read-out: MSD BMP RGA IC50
ALK6 (aa168-495) = ALK6 (aa168-495) (Homo sapiens (Human), UniProt O00238); assay: Caliper biochemical peptide phosphorylation assay, ALK6; conditions: 15 μm ATP, 60 min at 30° C.; read-out: ALK6 EPK (IC50)
ALK3 (aa198-525) = ALK3 (aa198-525) (Homo sapiens (Human), UniProt P36894); assay: ADPGlo biochemical autophosphorylation assay, ALK3; conditions: 15 μm ATP, 60 min at 32° C.
Chain of ALK3 (aa198-525) (P36894 198-525): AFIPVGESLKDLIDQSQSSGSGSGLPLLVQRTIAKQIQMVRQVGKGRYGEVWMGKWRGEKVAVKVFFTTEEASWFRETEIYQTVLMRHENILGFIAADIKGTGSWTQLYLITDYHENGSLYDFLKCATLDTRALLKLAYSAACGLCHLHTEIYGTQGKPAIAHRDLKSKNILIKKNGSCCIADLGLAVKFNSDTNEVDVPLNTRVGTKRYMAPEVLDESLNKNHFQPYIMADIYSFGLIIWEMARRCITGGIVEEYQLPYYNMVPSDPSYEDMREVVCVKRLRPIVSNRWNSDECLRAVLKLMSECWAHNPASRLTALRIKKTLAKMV

Chain of ALK1 (aa166-493) (P37023 166-493): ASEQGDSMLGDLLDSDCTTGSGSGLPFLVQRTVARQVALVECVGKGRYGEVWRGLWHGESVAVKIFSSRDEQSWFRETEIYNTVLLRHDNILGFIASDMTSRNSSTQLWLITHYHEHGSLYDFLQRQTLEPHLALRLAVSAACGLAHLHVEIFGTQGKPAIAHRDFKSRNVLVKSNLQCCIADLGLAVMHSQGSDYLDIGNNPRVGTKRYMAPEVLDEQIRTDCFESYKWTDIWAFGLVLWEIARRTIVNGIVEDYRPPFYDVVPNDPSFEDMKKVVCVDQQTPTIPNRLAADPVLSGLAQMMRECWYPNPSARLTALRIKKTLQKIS
T1 sequence (Q04771 172-499): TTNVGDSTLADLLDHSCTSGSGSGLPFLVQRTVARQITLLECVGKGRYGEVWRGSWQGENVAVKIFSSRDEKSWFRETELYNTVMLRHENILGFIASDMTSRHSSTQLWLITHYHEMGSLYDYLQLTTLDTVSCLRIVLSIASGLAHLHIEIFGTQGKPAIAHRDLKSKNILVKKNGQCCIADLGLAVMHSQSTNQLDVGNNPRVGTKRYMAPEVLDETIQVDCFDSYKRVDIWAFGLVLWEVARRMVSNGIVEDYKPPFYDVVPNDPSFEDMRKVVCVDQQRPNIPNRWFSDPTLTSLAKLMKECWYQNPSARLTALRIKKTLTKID
Chain of ALK6 (aa168-495) (O00238 168-495): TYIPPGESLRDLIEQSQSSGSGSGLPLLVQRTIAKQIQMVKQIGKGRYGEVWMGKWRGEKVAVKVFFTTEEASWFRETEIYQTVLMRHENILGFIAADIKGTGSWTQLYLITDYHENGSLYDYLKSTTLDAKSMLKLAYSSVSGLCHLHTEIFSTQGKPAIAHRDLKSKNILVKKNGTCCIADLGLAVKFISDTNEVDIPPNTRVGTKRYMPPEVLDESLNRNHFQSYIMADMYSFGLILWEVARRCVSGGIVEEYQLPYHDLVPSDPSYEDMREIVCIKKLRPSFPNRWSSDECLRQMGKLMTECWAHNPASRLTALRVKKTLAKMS
Chain of ALK5 (aa162-503) (P36897 162-503): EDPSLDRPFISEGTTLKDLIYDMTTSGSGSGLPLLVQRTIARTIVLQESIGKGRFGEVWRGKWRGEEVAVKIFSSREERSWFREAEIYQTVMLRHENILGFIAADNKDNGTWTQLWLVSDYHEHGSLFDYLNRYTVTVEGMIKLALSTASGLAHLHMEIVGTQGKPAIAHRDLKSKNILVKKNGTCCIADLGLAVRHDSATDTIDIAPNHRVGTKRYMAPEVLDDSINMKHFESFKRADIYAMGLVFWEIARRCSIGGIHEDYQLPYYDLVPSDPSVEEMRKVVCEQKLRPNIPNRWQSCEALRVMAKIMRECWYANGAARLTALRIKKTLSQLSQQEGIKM

| Compound | IC50 (ALK5 (aa162-503)) | IC50 [1] | IC50 [2] | IC50 (ALK1 (aa166-493)) | IC50 [3] | IC50 (ALK6 (aa168-495)) | IC50 (ALK3 (aa198-525)) |
| --- | --- | --- | --- | --- | --- | --- | --- |
| CN1CCN(CCNC(=O)c2ccc(-c3cnc(N)c(C(=O)NC4CCCCC4)c3)cc2)CC1 [Example 65, 2-amino-N-cyclohexyl-5-(4-((2-(4-methylpiperazin-1-yl)ethyl)carbamoyl)phenyl)nicotinamide] | 1700 nM | 44 nM | 82 nM | 580 nM | 415 nM | 10000 nM | 2400 nM |
| Nc1ncc(-c2ccc([C@]34C[C@H]3CN(C(CF)CF)C4)cc2)cc1C(=O)N[C@H]1CC[C@H](O)CC1 [Example 66, 2-amino-5-(4-((1S,5R)-3-(1,3-difluoropropan-2-yl)-3-azabicyclo[3.1.0]hexan-1-yl)phenyl)-N-((1r,4S)-4-hydroxycyclohexyl)nicotinamide] | 10000 nM | 56 nM | 15 nM | 190 nM | 910 nM | 6200 nM | 1200 nM |
| Nc1ncc(-c2ccc([C@]34C[C@H]3CN(CC(F)(F)F)C4)cc2)cc1C(=O)N[C@H]1CC[C@H](O)CC1 [Example 67, 2-amino-N-((1r,4S)-4-hydroxycyclohexyl)-5-(4-((1S,5R)-3-(2,2,2-trifluoroethyl)-3-azabicyclo[3.1.0]hexan-1-yl)phenyl)nicotinamide] | 10000 nM | 50 nM | 22 nM | 180 nM | 1160 nM | 8700 nM | 1900 nM |
| C[C@H](c1ccc(-c2cnc(N)c(C(=O)NC34CC5CC(CC(O)(C5)C3)C4)c2)cc1)N1CC2(COC2)C1 [Example 68, 5-(4-((R)-1-(2-oxa-6-azaspiro[3.3]heptan-6-yl)ethyl)phenyl)-2-amino-N-((1r,3R)-3-hydroxyadamantan-1-yl)nicotinamide] | 10000 nM | 49 nM | 34 nM | 2500 nM | 950 nM | 10000 nM | 8000 nM |
| Nc1ncc(-c2ccc(C(=O)N3CCOCC3)cc2)cc1C(=O)NC1CCCCC1 [Example 69, 2-amino-N-cyclohexyl-5-(4-(morpholine-4-carbonyl)phenyl)nicotinamide] | 5200 nM | 52 nM | 41 nM | 1100 nM | 1100 nM | 9000 nM | 3100 nM |
| Nc1ncc(-c2ccc([C@@]34C[C@@H]3CN(CC3COC3)C4)cc2)cc1C(=O)N[C@H]1CC[C@H](O)CC1 [Example 70, 2-amino-N-((1r,4R)-4-hydroxycyclohexyl)-5-(4-((1R,5S)-3-(oxetan-3-ylmethyl)-3-azabicyclo[3.1.0]hexan-1-yl)phenyl)nicotinamide] | 9400 nM | 68 nM | 20 nM | 305 nM | 513 nM | 8750 nM | 2850 nM |
| CC(C)N1C[C@@H]2C[C@]2(c2ccc(-c3cnc(N)c(C(=O)N[C@H]4CC[C@@H](O)CC4)c3)cc2)C1 [Example 71, 2-amino-N-((1s,4R)-4-hydroxycyclohexyl)-5-(4-((1S,5R)-3-isopropyl-3-azabicyclo[3.1.0]hexan-1-yl)phenyl)nicotinamide] | 3000 nM | 65 nM | 22 nM | 490 nM | 86 nM | 5800 nM | 2900 nM |
| C[C@@H]1CCCN1Cc1ccc(-c2cnc(N)c(C(=O)N[C@H]3CC[C@](C)(O)CC3)c2)c(F)c1F [Example 74, 2-amino-5-(2,3-difluoro-4-(((R)-2-methylpyrrolidin-1-yl)methyl)phenyl)-N-((1r,4R)-4-hydroxy-4-methylcyclohexyl)nicotinamide] | 10000 nM | 70 nM | 64 nM | 2500 nM | 550 nM | 10000 nM | 13200 nM |
